The values below come from patent US6638928B1, “Treatment of irritable bowel syndrome and nonulcer dyspepsia with substituted 2,3-benzodiazepines” (Vela Pharmaceuticals, Inc., priority 2002, dated 2003).

In experiment [1] the test system is colonic propulsive motility. Put plainly: Glass bead test of colonic propulsive motility in mice. Type of experiment: in vivo, mouse. The following applies: 32 mg/kg IP; for Expulsion Time Mean ± SEM: 3 mm glass bead inserted 30 minutes after dosing, cut-off time 30 minutes, 10 per group; for Expulsion Time Mean ± SEM / inhibition at 32 mg/kg: female Swiss Webster mice; for inhibition at 32 mg/kg: Mus musculus, inhibition of bead expulsion vs vehicle; for inhibition of colonic propulsion (in words): summary of Table 1 data, mice. An excerpt:
This model is predictive of agents that may be used to treat the alterations in propulsion of intestinal contents that occur in individuals diagnosed with IBS. The model is very sensitive to test compounds producing inhibitory effects on propulsive motor activity, but is not sensitive to test articles increasing colonic propulsive motility. The model provides a direct measure of colonic propulsion. Thus, a test compound that slows the rate at which a glass bead is expelled, is predicted to have utility in the treatment of IBS,
This test is also used to evaluate test articles with potential to produce constipation, antidiarrheal activity, or have selective visceral anti-nociceptive activity in addition to being used as an animal model for irritable bowel syndrome.
For the present example, seventy test animals (female, 6 week old Swiss Webster mice, 18-30 g) were divided into 7 groups of 10 animals each for administration of six test compounds and vehicle alone as a control.
Each animal was dosed (IP) with either a compound of formula I, one of two related 2,3-benzodiazepines or vehicle alone. Thirty minutes after dosing, a 3 mm glass bead was inserted through the anus to a depth of 2 cm into the distal colon using a glass rod. […] Any test animal that had not expelled the bead within a cut-off time of 30 minutes was sacrificed and the position of the bead in the lumen of the colon was verified.
Such observations included gross evaluation of skin and fur, eyes and mucous membranes, respiratory, circulatory, autonomic and central nervous system, somatomotor activity and behavioral patterns. Particular attention was directed to observation of tremors, convulsions, salivation, diarrhea, sleep and coma. No signs of gross toxicity were observed. Mean and standard error of the mean were calculated for the expulsion times for each group.

Another experiment deals with aggression in mice. The following applies: cited from earlier work.
A further experiment has as its system muricide in rats. Conditions: cited from earlier work.
The test system of experiment [2] is anti-noradrenergic effects. Conditions: cited from earlier work.
Another experiment relates to narcosis in mice. Conditions: cited from earlier work.
A further experiment relates to central BZ receptors. Conditions: cited from earlier work.
In a further experiment the target is peripheral BZ receptors (Homo sapiens, UniProt P30536). The following applies: cited from earlier work.
Sequence of peripheral BZ receptors (P30536 whole entry): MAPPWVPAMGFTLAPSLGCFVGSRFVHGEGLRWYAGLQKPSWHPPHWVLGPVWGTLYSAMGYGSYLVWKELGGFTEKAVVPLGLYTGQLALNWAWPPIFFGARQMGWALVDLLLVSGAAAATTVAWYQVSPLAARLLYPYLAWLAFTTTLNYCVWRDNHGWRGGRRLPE

A word on the inhibition: it is the drop in the measured response relative to a control, in per cent. A lower inhibition goes with little suppression. As for `CCC1C(C)=NN=C(c2ccc(OC)c(O)c2)c2cc(OC)c(OC)cc21` (racemic) [Compound 4, 1-(3-hydroxy-4-methoxyphenyl)-4-methyl-5-ethyl-7,8-dimethoxy-5H-2,3-benzodiazepine], in experiment [1], the “Expulsion Time Mean ± SEM” value was determined as 20.3 ± 3.5, the inhibition at 32 mg/kg was 42% and the “inhibition of colonic propulsion (in words)” value is on record as “substantial inhibition of colonic propulsion”.

For the molecule `CCC1C(C)=NN=C(c2ccc(O)c(OC)c2)c2cc(OC)c(OC)cc21` (centres unmarked) [Compound 3, 1-(3-methoxy-4-hydroxyphenyl)-4-methyl-5-ethyl-7,8-dimethoxy-5H-2,3-benzodiazepine], in experiment [1], the “Expulsion Time Mean ± SEM” value is 20.0 ± 3.1, the inhibition at 32 mg/kg was 40% and the “inhibition of colonic propulsion (in words)” value is “substantial inhibition of colonic propulsion”. For the same molecule, in the experiment on aggression in mice, the inhibition of aggression is 0%. The inhibition of muricide in the experiment on muricide in rats is 0%. Besides, in experiment [2], the anti-noradrenergic effects entry is listed as “measurable activity”. Moreover, the narcosis-potentiating activity entry with narcosis in mice is “narcosis-potentiating activity”.

In the case of `CCC1C(C)=NN=C(c2ccc(OC)c(OC)c2)c2cc(OC)c(O)cc21` (centres unmarked) [Compound 1, 1-(3,4-dimethoxyphenyl)-4-methyl-5-ethyl-7-hydroxy-8-methoxy-5H-2,3-benzodiazepine], in experiment [1], the “Expulsion Time Mean ± SEM” value came out at 6.9 ± 3.7 and the inhibition at 32 mg/kg turned out to be 22%. Besides, the inhibition of aggression with aggression in mice is reported as 0%. Further, in the experiment with muricide in rats, the inhibition of muricide was 20%. In experiment [2], the anti-noradrenergic effects result is listed as “no effect”.

With `CCC1C(C)=NN=C(c2ccc(OC)c(O)c2)c2cc(OC)c(O)cc21` (centres unmarked) [Compound 6, 1-(3-hydroxy-4-methoxyphenyl)-4-methyl-5-ethyl-7-hydroxy-8-methoxy-5H-2,3-benzodiazepine, reference compound], in experiment [1], the “Expulsion Time Mean ± SEM” value turned out to be 10.7 ± 3.4 and the inhibition at 32 mg/kg was 0%.

Regarding `CCC1C(C)=NN=C(c2ccc(OC)c(OC)c2)c2cc(OC)c(OC)cc21` (racemic) [tofisopam, 1-(3,4-dimethoxyphenyl)-4-methyl-5-ethyl-7,8-dimethoxy-5H-2,3-benzodiazepine], the “interaction with central BZ receptors” value in the experiment on central BZ receptors was “does not interact”. For the same molecule, on peripheral BZ receptors, the “binding to peripheral BZ receptors” value is “binds only weakly”.

Regarding `CCC1C(C)=NN=C(c2ccc(O)c(OC)c2)c2cc(OC)c(O)cc21` (centres unmarked) [Compound 5, 1-(3-methoxy-4-hydroxyphenyl)-4-methyl-5-ethyl-7-hydroxy-8-methoxy-5H-2,3-benzodiazepine, reference compound], in experiment [1], the “Expulsion Time Mean ± SEM” value amounted to 12.0 ± 3.2 and at 32 mg/kg the inhibition was 0%. For the same molecule, the inhibition of aggression with aggression in mice was 28.6%. Further, the inhibition of muricide with muricide in rats was 20%. Moreover, the anti-noradrenergic effects result in experiment [2] is recorded as “measurable activity”.

Turning to `CCC1C(C)=NN=C(c2ccc(OC)c(OC)c2)c2cc(O)c(OC)cc21` (racemic) [Compound 2, 1-(3,4-dimethoxyphenyl)-4-methyl-5-ethyl-7-methoxy-8-hydroxy-5H-2,3-benzodiazepine], in experiment [1], the “Expulsion Time Mean ± SEM” value is recorded as 17.2 ± 3.5 and testing at 32 mg/kg gave an inhibition of 23%.
